The values below come from ChEMBL document CHEMBL6096702, “Discovery of a Novel p38α-MK2 Complex Inhibitor as a Potential Choice for Autoimmune Diseases” (J Med Chem, 2025).

Molecules are shown by their SMILES. Converted amounts (≈) assume the structure as drawn. The source made the active and inactive calls. No cut-off for these calls is given here. Some results are limits rather than exact numbers.

Series [1] can be described thus: Inhibition of N-terminal GST-tagged wildtype human P38alpha (4 to 152 residues) extracted from Escherichia coli/GST-tagged MK2 (unknown origin) assessed as reduction in HSP27 phosphorylation incubated for 2 hrs in presence of ATP and HSP27-FITC peptide by fluorescence polarization based IMAP assay.
The nature of series [2]: AUClast in male Sprague-Dawley rat at 2 mg/kg, po measured after 24 hrs by LC-MS/MS analysis. In kind it is ADME, organism-based. The settings on record: in vivo.
Series [3] is described as follows: Half-life in male Sprague-Dawley rat at 1 mg/kg, iv measured after 24 hrs by LC-MS/MS analysis. It is filed as ADME, organism-based. The settings on record: in vivo.
Series [4] can be described thus: Cmax in male Sprague-Dawley rat at 2 mg/kg, po measured after 24 hrs by LC-MS/MS analysis. It is filed as ADME, organism-based. To be noted: in vivo.
Series [5] can be described thus: Volume of distribution at steady state in male Beagle dog at 1 mg/kg, iv measured after 24 hrs by LC-MS/MS analysis. In kind it is ADME, organism-based, Canis lupus familiaris. To be noted: in vivo, read-out: Vdss.
The nature of series [6]: Solubility of compound in PBS at pH 7.4 measured after 4 to 24 hrs by LC-MS analysis. It is filed as physicochemical. To be noted: time 4-24 hrs.
Series [7] can be described thus: MRT in male Sprague-Dawley rat at 1 mg/kg, iv measured after 24 hrs by LC-MS/MS analysis. In kind it is ADME, organism-based. The settings on record: in vivo.
In series [8] the test system is PBMC. The series can be described thus: Inhibition of LPS-induced IL-8 production in human PBMC cells at 0.01 to 10000 nM preincubated with compound for 1 hrs followed by LPS addition and measured after 4 hrs. To be noted: dose 0.01-10000 nM, time 5.0 hrs. It is filed as functional, cell-based.
Series [9] is described as follows: Cmax in male Beagle dog at 2 mg/kg, po measured after 24 hrs by LC-MS/MS analysis. It is filed as ADME, organism-based, Canis lupus familiaris. To be noted: in vivo.
Series [10] deals with PBMC. As to the kind of experiment: Inhibition of LPS-induced IL-6 production in human PBMC cells at 0.01 to 10000 nM preincubated with compound for 1 hrs followed by LPS addition and measured after 4 hrs. It is filed as functional, cell-based. To be noted: dose 0.01-10000 nM, time 5.0 hrs.
Series [11] in a line: Oral bioavailability in male Sprague-Dawley rat at 2 mg/kg measured after 24 hrs by LC-MS/MS analysis. It is filed as ADME, organism-based. The settings on record: in vivo.
Series [12] is described as follows: Half-life in female Lewis rat at 3 mg/kg, po measured after 24 hrs by LC-MS/MS analysis. To be noted: in vivo. It is filed as ADME, organism-based.
The nature of series [13]: Volume of distribution at steady state in male Sprague-Dawley rat at 1 mg/kg, iv measured after 24 hrs by LC-MS/MS analysis. It is filed as ADME, organism-based. To be noted: in vivo, read-out: Vdss.
Series [14] can be described thus: Half-life in female Lewis rat at 1 mg/kg, po measured after 24 hrs by LC-MS/MS analysis. It is filed as ADME, organism-based. The settings on record: in vivo.
Series [15] can be described thus: Cmax in female Lewis rat at 3 mg/kg, po measured after 24 hrs by LC-MS/MS analysis. The settings on record: in vivo. It is filed as ADME, organism-based.
The nature of series [16]: Inhibition of N-terminal GST-tagged wildtype human P38alpha (4 to 152 residues) extracted from Escherichia coli/GST-tagged PRAK (unknown origin) assessed as reduction in HSP27 phosphorylation incubated for 2 hrs in presence of ATP and HSP27-FITC peptide by fluorescence polarization based IMAP assay.
A short description of series [17]: MRT in male Beagle dog at 1 mg/kg, iv measured after 24 hrs by LC-MS/MS analysis. In kind it is ADME, organism-based, Canis lupus familiaris. To be noted: in vivo.
Series [18] can be described thus: Clearance in male Beagle dog at 1 mg/kg, iv measured after 24 hrs by LC-MS/MS analysis. In kind it is ADME, organism-based, Canis lupus familiaris. The settings on record: in vivo.
The nature of series [19]: AUC (0 to 24 hrs) in female Lewis rat at 3 mg/kg, po measured after 24 hrs by LC-MS/MS analysis. In kind it is ADME, organism-based. To be noted: in vivo.
Series [20] concerns PBMC. As to the kind of experiment: Inhibition of LPS-induced TNF-alpha production in human PBMC cells at 0.01 to 10000 nM preincubated with compound for 1 hrs followed by LPS addition and measured after 4 hrs. It is filed as functional, cell-based. To be noted: dose 0.01-10000 nM, time 5.0 hrs.
Series [21] is described as follows: Cmax in female Lewis rat at 1 mg/kg, po measured after 24 hrs by LC-MS/MS analysis. In kind it is ADME, organism-based. The settings on record: in vivo.
Series [22] can be described thus: AUC (0 to 24 hrs) in female Lewis rat at 1 mg/kg, po measured after 24 hrs by LC-MS/MS analysis. It is filed as ADME, organism-based. The settings on record: in vivo.
Series [23] in a line: Oral bioavailability in male Beagle dog at 2 mg/kg measured after 24 hrs by LC-MS/MS analysis. In kind it is ADME, organism-based, Canis lupus familiaris. The settings on record: in vivo.
A short description of series [24]: Selectivity ratio of IC50 for inhibition of N-terminal GST-tagged wildtype human P38alpha (4 to 152 residues) extracted from Escherichia coli/GST-tagged PRAK (unknown origin) to IC50 for inhibition of N-terminal GST-tagged wildtype human P38alpha (4 to 152 residues) extracted from Escherichia coli/GST-tagged MK2 (unknown origin).
Series [25] in a line: AUClast in male Beagle dog at 1 mg/kg, iv measured after 24 hrs by LC-MS/MS analysis. In kind it is ADME, organism-based, Canis lupus familiaris. The settings on record: in vivo.
Series [26] is described as follows: AUClast in male Beagle dog at 2 mg/kg, po measured after 24 hrs by LC-MS/MS analysis. In kind it is ADME, organism-based, Canis lupus familiaris. The settings on record: in vivo.
Series [27] in a line: Half-life in male Beagle dog at 1 mg/kg, iv measured after 24 hrs by LC-MS/MS analysis. It is filed as ADME, organism-based, Canis lupus familiaris. The settings on record: in vivo.
Series [28] is described as follows: AUClast in male Sprague-Dawley rat at 1 mg/kg, iv measured after 24 hrs by LC-MS/MS analysis. It is filed as ADME, organism-based. The settings on record: in vivo.
A further series has as its system Rattus norvegicus. The series can be described thus: Antiarthritic activity in Mycobacterium tuberculosis H37R-induced female Lewis rat model of arthritis assessed as reduction in paw inflammation at 3 mg/kg, po administered twice daily for 15 days starting from day 13 after adjuvant administration by micro-CT analysis. It is filed as functional, organism-based. To be noted: time 15.0 day.

Series [29] can be described thus: Clearance in male Sprague-Dawley rat at 1 mg/kg, iv measured after 24 hrs by LC-MS/MS analysis. It is filed as ADME, organism-based. The settings on record: in vivo.
Series [30] can be described thus: Inhibition of LPS-induced IL-1beta production in human PBMC cells preincubated with compound for 1 hrs followed by LPS addition and measured after 4 hrs. In kind it is functional, cell-based.
Series [31] in a line: Inhibition of LPS-induced TNF-alpha production in human PBMC cells preincubated with compound for 1 hrs followed by LPS addition and measured after 4 hrs. In kind it is functional, cell-based.

Regarding `Cc1cnc(-c2ccnc(C(C)(C)O)n2)cc1-n1c(C)cc(OCc2ncc(F)cc2F)c(Cl)c1=O` [ZUNSEMETINIB], the half-maximal inhibitory concentration (IC50) in series [1] turned out to be 6.6 nM; in [16], 6410 nM. The AUC(0-t) at 24 h in [2] was 1830 ng·h/mL; in [19], 2520 ng·h/mL; in [22], 682 ng·h/mL; in [25] it was 2230 ng·h/mL; in series [26] it was 3230 ng·h/mL; in [28], 1280 ng·h/mL. Also, the half-life was 1.1 h in [3], 1.6 h in series [12], 1.9 h in series [14] and 3.4 h in [27]. Moreover, the Cmax came out at 415 ng/mL in series [4], 587 ng/mL in series [9], 781 ng/mL in series [15] and 217 ng/mL in [21]. Moreover, the Vd in [5] was determined as 1.5 L/kg; in [13], 0.8 L/kg. The amount in solution in series [6] (solubility) came to 5.6 µg/mL (≈ 10.9 µM). Besides, the MRT in series [7] stood at 1.1 h; in series [17], 3.4 h. For the same molecule, the inhibition result in the series with PBMC [8], in the series on PBMC [10] and with PBMC [20] was “Active” in each case. For the same molecule, the bioavailability in series [11] is 71%; in series [23] it was 73%. Besides, the clearance in series [18] is 7.5 mL/min/kg; in series [29], 13.1 mL/min/kg. Besides, the Ratio IC50 in [24] is 971. The result in the series with Rattus norvegicus was inactive.

`Cc1cnc(-c2cccc(C(C)(C)O)c2F)c(F)c1-n1c(C)cc(OCc2ncc(F)cc2F)c(Cl)c1=O`: the AUC(0-t) at 24 h in series [2] came to 861 ng·h/mL; in series [28], 1080 ng·h/mL. The molecule further gave a half-life in series [3] of 0.9 h. The molecule also registered a Cmax in series [4] of 283 ng/mL. Moreover, in series [7], the MRT was found to be 1.2 h. The IC50 is 0.02 nM in series [30], under 0.1 nM in series [31] and 1 nM in series [16]. This molecule had a bioavailability in series [11] of 40%. Further, the Vd in series [13] came to 1.1 L/kg. Besides, the Ratio IC50 in series [24] was determined as 125. For the same molecule, in series [29], the clearance turned out to be 16.3 mL/min/kg.
